Experimental findings from PubChem BioAssay (NCI) are described below.

Values joined by “and” are separate entries in the source; they are usually repeats but may differ in a detail not shown here. Equal values may be shown once.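 Where inhibition never reached the appropriate level, the endpoint shown equals the highest concentration tested. Otherwise, values were interpolated linearly from a five-concentration, 48-hour dose response in 96-well plates. GI50 is the concentration that inhibits growth by half. At the TGI there is no net growth.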 A value given as a limit tells only on which side of the number the result lay.

Among the test systems are CAKI-1 renal; EKVX NSCLC; HOP-62 NSCLC; NCI-H23 lung; NCI-H460 lung; OVCAR-3 ovarian; PC-3 prostate; SF-539 CNS; SK-MEL-2 melanoma; SNB-19 CNS.
Common to all, as to experiment: inhibition of tumour cell growth, NCI panel, 48 h

As for `N=C(N)c1ccc2nc(-c3cc(CC(=O)N[C@@H](CC(=O)O)C(=O)O)cc(-c4cc(S(N)(=O)=O)ccc4O)c3O)[nH]c2c1`, the GI50 with CAKI-1 renal, with EKVX NSCLC, in the assay with HOP-62 NSCLC, in the assay with NCI-H23 lung, with NCI-H460 lung and in the assay on OVCAR-3 ovarian was more than 100000 nM each time. Further, the GI50 in the assay on PC-3 prostate, in the assay on SF-539 CNS, in the assay on SK-MEL-2 melanoma and in the assay with SNB-19 CNS was more than 100000 nM each time. The TGI in the assay on CAKI-1 renal, in the assay on EKVX NSCLC, in the assay on HOP-62 NSCLC, in the assay on NCI-H23 lung, with NCI-H460 lung and in the assay on OVCAR-3 ovarian was more than 100000 nM throughout. The TGI in the assay with PC-3 prostate, in the assay with SF-539 CNS, in the assay with SK-MEL-2 melanoma and with SNB-19 CNS was more than 100000 nM each time.
As to `CSc1ccc2c(c1)C(=O)c1c-2n(CCCBr)c(=O)c2cc([N+](=O)[O-])ccc12`, the GI50 in the assay with CAKI-1 renal is 1090 nM; in the assay on EKVX NSCLC, more than 100000 nM; in the assay on HOP-62 NSCLC, 1050 nM; with NCI-H23 lung, 8030 nM; with NCI-H460 lung, 547 nM; in the assay with OVCAR-3 ovarian it was more than 100000 nM. In addition, the GI50 was 25800 nM in the assay on PC-3 prostate, 4590 nM in the assay on SF-539 CNS, more than 100000 nM in the assay with SK-MEL-2 melanoma and 3780 nM in the assay on SNB-19 CNS. Also, the TGI in the assay on CAKI-1 renal is 8940 nM; in the assay with EKVX NSCLC, more than 100000 nM; with HOP-62 NSCLC it was 19600 nM; in the assay with NCI-H23 lung, more than 100000 nM; with NCI-H460 lung it was more than 100000 nM; in the assay with OVCAR-3 ovarian, more than 100000 nM. Besides, the TGI with PC-3 prostate, in the assay on SF-539 CNS, with SK-MEL-2 melanoma and in the assay on SNB-19 CNS was more than 100000 nM throughout.
In the case of `CCCCCOc1ccc(/C=N/Nc2cc(C)nc3ccc(Br)cc23)cc1`, the GI50 in the assay on CAKI-1 renal is 1630 nM; in the assay on EKVX NSCLC, 1630 nM; in the assay on HOP-62 NSCLC, 1730 nM; in the assay on NCI-H23 lung it was 1850 nM; with NCI-H460 lung it was 1940 nM; with OVCAR-3 ovarian it was 1920 nM. Also, the GI50 was 1550 nM in the assay on PC-3 prostate, 1760 nM in the assay on SF-539 CNS, 1980 nM in the assay on SK-MEL-2 melanoma and 1960 nM in the assay with SNB-19 CNS. In addition, the TGI with CAKI-1 renal was determined as 2990 nM; in the assay on EKVX NSCLC, 3110 nM; in the assay with HOP-62 NSCLC, 3370 nM; in the assay with NCI-H23 lung it was 3820 nM; with NCI-H460 lung it was 3700 nM; with OVCAR-3 ovarian, 3370 nM. In addition, the TGI in the assay on PC-3 prostate stood at 3020 nM; in the assay on SF-539 CNS, 3230 nM; in the assay with SK-MEL-2 melanoma, 3910 nM; with SNB-19 CNS it was 3710 nM.
As to `CC[C@H]1CN2CCc3cc(OC)c(OC)cc3[C@@H]2C[C@@H]1C[C@H]1NCCc2c1[nH]c1ccc(O)cc21`, the TGI in the assay on CAKI-1 renal was 614 nM and 680 nM; in the assay on EKVX NSCLC, 401 nM and 125 nM; with HOP-62 NSCLC, 74.8 nM and 94.1 nM and 48.8 nM; with NCI-H23 lung it was 47.2 nM and 112 nM and 70.6 nM; with NCI-H460 lung, 91.2 nM and 395 nM and 42.2 nM; in the assay with OVCAR-3 ovarian it was 62.2 nM and 89 nM and 250 nM. For the same compound, the TGI was 814 nM in the assay with PC-3 prostate; 47.6 nM and 51.3 nM and 40.8 nM with SF-539 CNS; 52 nM and 35.3 nM with SK-MEL-2 melanoma. Moreover, the GI50 was 40.9 nM in the assay with EKVX NSCLC; 26.4 nM and 29.8 nM with HOP-62 NSCLC; 17.7 nM and 30.3 nM in the assay on NCI-H23 lung; 25.2 nM and 39.8 nM in the assay on NCI-H460 lung; 15.6 nM with OVCAR-3 ovarian; 34.5 nM in the assay on PC-3 prostate. Further, the GI50 in the assay with SF-539 CNS was 21.1 nM and 23.2 nM; in the assay on SK-MEL-2 melanoma it was 22.8 nM; in the assay on SNB-19 CNS it was 24.9 nM and 63.6 nM.
Regarding `CC1=NC(=Cc2cc(Br)cc(Br)c2)C(=O)N1n1c(-c2ccccc2)nc2ccccc2c1=O`, the TGI in the assay on CAKI-1 renal, in the assay with EKVX NSCLC, in the assay on HOP-62 NSCLC, in the assay on NCI-H23 lung, with NCI-H460 lung and with OVCAR-3 ovarian was more than 100000 nM each time. Also, the TGI with PC-3 prostate, in the assay on SF-539 CNS, with SK-MEL-2 melanoma and in the assay on SNB-19 CNS was more than 100000 nM in each case.
As for `C=C1C(=O)O[C@H]2[C@H]1CC/C(COC(=O)/C=C\C(=O)NCc1ccc(Cn3c(=O)sn(CCCC)c3=O)cc1)=C\CC[C@@]1(C)O[C@@H]21`, the GI50 in the assay on CAKI-1 renal was 328 nM; with EKVX NSCLC, 1480 nM; with HOP-62 NSCLC, 1630 nM; in the assay on NCI-H23 lung it was 1400 nM; in the assay with NCI-H460 lung, 1270 nM; in the assay on OVCAR-3 ovarian, 229 nM. For the same compound, the GI50 is 868 nM in the assay with PC-3 prostate, 1180 nM with SF-539 CNS, 1670 nM in the assay with SK-MEL-2 melanoma and 1530 nM in the assay on SNB-19 CNS. Besides, the TGI in the assay on CAKI-1 renal was 1480 nM; with EKVX NSCLC, 2850 nM; in the assay on HOP-62 NSCLC, 3460 nM; in the assay on NCI-H23 lung it was 2890 nM; in the assay on NCI-H460 lung, 2730 nM; with OVCAR-3 ovarian, 589 nM. Moreover, the TGI turned out to be 2340 nM in the assay on PC-3 prostate, 2420 nM in the assay with SF-539 CNS, 3310 nM with SK-MEL-2 melanoma and 2930 nM with SNB-19 CNS.
Turning to `N#CC1=C(N)Oc2cc(O)ccc2C1c1cccc2ccccc12` (stereo not drawn), the GI50 in the assay on CAKI-1 renal was 8550 nM; with EKVX NSCLC, 17000 nM; in the assay with HOP-62 NSCLC it was 13500 nM; in the assay on NCI-H23 lung it was 10200 nM; in the assay on NCI-H460 lung it was 12400 nM; in the assay on OVCAR-3 ovarian, 4070 nM. Further, the GI50 with PC-3 prostate is 5210 nM; in the assay on SF-539 CNS, 16500 nM; with SK-MEL-2 melanoma, 11700 nM; in the assay with SNB-19 CNS, 16300 nM. Also, the TGI is 27000 nM with CAKI-1 renal; more than 100000 nM with EKVX NSCLC; 31700 nM with HOP-62 NSCLC; 22600 nM with NCI-H23 lung; 32500 nM with NCI-H460 lung; 16600 nM in the assay with OVCAR-3 ovarian. Moreover, the TGI in the assay with PC-3 prostate was 29200 nM; with SF-539 CNS it was 36500 nM; in the assay with SK-MEL-2 melanoma, 24300 nM; in the assay with SNB-19 CNS, 37300 nM.
